Data as given in article PMC4608832, “Synthesis of New 4-Aminoquinolines and Evaluation of Their In Vitro Activity against Chloroquine-Sensitive and Chloroquine-Resistant Plasmodium falciparum” (PLoS ONE, 2015).
Read-outs that look alike come from different tables or passages of the source.

How the values were obtained:
[1] = system: P. falciparum 3D7 (CQ-sensitive); assay: In vitro antiplasmodial activity, 3H-hypoxanthine incorporation, strain 3D7; assay type: cell-based; settings: Plasmodium falciparum, IC50 ± SD
Procedure: (§1) The following strains of Plasmodium falciparum were used in this study: F32 (Tanzania), Dd2 (SE Asia), K1 (SE Asia), FcB1 (Colombia), K14 (Cambodia) and 3D7 (Africa). […] Parasites at the ring stage (laboratory A) or asynchronous parasites (laboratory B) were grown in human A+ or O+ red blood cells at a 1.5% (laboratory A) or 2% (laboratory B) haematocrit and a 0.8–1% parasitaemia. Synchronization of the parasites was performed by sorbitol treatment.
(§2) Further dilutions were in complete culture medium. The complexes were tested for their inhibitory effect toward P. falciparum intraerythrocytic development. […] 100 μL from a culture at a 3% (laboratory A) or 4% (laboratory B) hematocrit in complete medium was added per well. […] Plates were freeze-thawed and harvested on filters. […] The percentage of growth inhibition was calculated from the parasite-associated radioactivity. 100% ^3H-hypoxanthine incorporation was determined from a control grown in the absence of drug or test compound.

P. falciparum Dd2 = assay: In vitro antiplasmodial activity, 3H-hypoxanthine incorporation, strain Dd2; assay type: cell-based; settings: Plasmodium falciparum, IC50 ± SD
Procedure: as §1, §2

[2] = system: P. falciparum K1 (CQ-resistant); assay: In vitro antiplasmodial activity, 3H-hypoxanthine incorporation, strain K1; assay type: cell-based; settings: Plasmodium falciparum, IC50 ± SD
Procedure: as §1, §2

[3] = system: P. falciparum F32 (CQ-sensitive); assay: In vitro antiplasmodial activity, 3H-hypoxanthine incorporation, strain F32; assay type: cell-based; settings: Plasmodium falciparum
Procedure: as §1, §2
(§3) IC50 ± SD values (nM) determined from independent experiments performed in triplicate under the conditions of laboratory B (Paris).

[4] = system: P. falciparum K14 (CQ-resistant); assay: In vitro antiplasmodial activity, 3H-hypoxanthine incorporation, strain K14; assay type: cell-based; settings: Plasmodium falciparum
Procedure: as §1, §2, §3

[5] = system: P. falciparum FcB1 (CQ-resistant); assay: In vitro antiplasmodial activity, 3H-hypoxanthine incorporation, strain FcB1; assay type: cell-based; settings: Plasmodium falciparum
Procedure: as §1, §2, §3

[6] = Cytotoxicity, MTT, L6 cells; assay type: cell-based; settings: rat, L-6 cells, concentration inducing 50% of cell growth arrest, three days
Procedure: (§4) The rat L-6 and human MRC-5 cell lines were routinely grown in RPMI 1640 supplemented with 11 mM glucose, 27.5 mM NaHCO3, 100 UI/mL penicillin, 100 μg/mL streptomycin and 10% fetal calf serum (RPMI-FCS), in a 5% CO2 incubator at 37°C. For cytotoxicity assays, 100 μL per well of a 2×10^4 cells/mL suspension in RPMI-FCS were deposited in a 96-well microplate and incubated overnight in culture conditions. Then decreasing concentrations of the compounds to test were established by twofold serial dilutions in RPMI-FCS and distributed at a rate of 100 μL per well and the microplate was put back in the incubator for an additional three (L-6) or five (MRC-5) day period. Then the supernatant in each well was discarded and replaced by 100 μL of MTT 1 mg/mL in RPMI-FCS. The microplate was re-incubated in culture conditions for three hours, then 100 μL of 10% SDS was added by well. The cells were left overnight in the incubator then the OD at 540nm was measured with the Bio-Tek FL600™ microplate reader equipped with the KC4™ software. […] The selectivity of each compound to P. falciparum was assessed through the selectivity index (SI), defined as CC50 (to L6 or MRC5 cells) / IC50 (to P. falciparum).

[7] = Cytotoxicity, MTT, MRC5 cells; assay type: cell-based; settings: human, MRC-5 cells, concentration inducing 50% of cell growth arrest, five days
Procedure: as §4

[8] = In vitro microsomal metabolic stability; settings: for microsomal CLint at 1 μM / half-life at 1 μM: human; for microsomal CLint at 1 μM: pH 7.4
Procedure: The evaluation of microsomal stability was performed by Cyprotex US, LLC, Watertown, MA. […] After separation on an HILIC HPLC colum (Sepax HILIC […] 2.1 x 30 mm) using an acetonitrile-water gradient system, peaks were analyzed by mass spectrometry (MS) using ESI ionization in MRM mode. The signal was optimized for each compound by ESI positive or negative ionization mode. An MS2 scan or an SIM scan was used to optimize the fragmenter voltage and a product ion analysis was used to identify the best fragment for analysis, and the collision energy was optimized using a product ion or MRM scan. An ionization ranking was assigned indicating the compound’s ease of ionization.
A control reaction omitting NADPH was performed for each compound in order to detect any NADPH-independent degradation. Aliquots were removed at 0, 10, 20, 40, and 60 min and mixed with an equal volume of ice-cold Stop Solution (methanol containing haloperidol, diclofenac, or other internal standard). The stopped reactions were further incubated for at least 10 min at -20°C, and an additional volume of water was added. The samples were centrifuged to remove precipitated protein, and the supernatants were analyzed by LC/MS/MS to quantify the remaining parent. Data were converted to % remaining by dividing by the time zero concentration value, and fitted to a first-order decay model to determine half-life values. Intrinsic clearance values were calculated from the half-life and protein concentrations by using the equation CLint = ln 2 / t1/2 [microsomal protein].

[9] = 3D7, laboratory A (Marseille), 5% CO2, 10% O2, 85% N2, read-out: Antiplasmodial activity, IC50, 3D7
[10] = 3D7, laboratory B (Paris), candle jar ~17% O2, 3% CO2, 80% N2, read-out: Antiplasmodial activity, IC50, 3D7
[11] = DD2, laboratory A (Marseille), 5% CO2, 10% O2, 85% N2, Dd2 CQ-resistant under these conditions, read-out: Antiplasmodial activity, IC50, Dd2
[12] = DD2, laboratory B (Paris), candle jar ~17% O2, 3% CO2, 80% N2, Dd2 CQ-sensitive under these conditions, read-out: Antiplasmodial activity, IC50, Dd2
[13] = K1, laboratory A (Marseille), 5% CO2, 10% O2, 85% N2, read-out: Antiplasmodial activity, IC50, K1
[14] = K1, laboratory B (Paris), candle jar ~17% O2, 3% CO2, 80% N2, read-out: Antiplasmodial activity, IC50, K1
[15] = F32, laboratory B (Paris), IC50 ± SD, read-out: Antiplasmodial activity, IC50, F32
[16] = laboratory B (Paris), IC50 ± SD, read-out: Antiplasmodial activity, IC50, K14
[17] = FCB1, laboratory B (Paris), IC50 ± SD, read-out: Antiplasmodial activity, IC50, FcB1
[18] = human liver microsomes, pH 7.4, NADPH-dep. t1/2, human liver microsomes, [Compd] = 1 μM, [protein] = 0.3 mg/mL, with NADPH
[19] = human liver microsomes, pH 7.4, NADPH-free t1/2, human liver microsomes, [Compd] = 1 μM, [protein] = 0.3 mg/mL, without NADPH

| Compound | IC50 [1, 9] | IC50 [1, 10] | IC50 (P. falciparum Dd2; [11]) | IC50 (P. falciparum Dd2; [12]) | IC50 [2, 13] | IC50 [2, 14] | IC50 [3, 15] | IC50 [4, 16] | IC50 [5, 17] | CC50 at 3 days [6] | CC50 at 5 days [7] | microsomal CLint at 1 μM ([8]; human liver microsomes) | half-life at 1 μM [8, 18] | half-life at 1 μM [8, 19] | other results |
| --- | --- | --- | --- | --- | --- | --- | --- | --- | --- | --- | --- | --- | --- | --- | --- |
| CCN(CC)Cc1cccc(CNc2ccnc3cc(Cl)ccc23)c1 [Compound 2, 7-Chloro-N-(3-((diethylamino)methyl)benzyl)quinolin-4-amine] | 18.4 ± 0.66 nM | 17.1 ± 2.97 nM | 26.5 ± 5.07 nM | 17.1 ± 1.72 nM | 64.2 ± 6.16 nM | 12 ± 1.15 nM | 14.7 ± 0.45 nM | 23.6 ± 1.73 nM | 30.3 ± 1.7 nM | 20600 ± 3920 nM | 20300 ± 3400 nM | 56.2 ± 0.55 µL/min/mg | 0.685 ± 0.00683 h | > 4 h |  |
| CCN(CC)Cc1ccc(CNc2ccnc3cc(Cl)ccc23)cc1 [Compound 3, 7-Chloro-N-(4-((diethylamino)methyl)benzyl)quinolin-4-amine] | 17.3 ± 0.58 nM | 16.1 ± 2.44 nM | 30.5 ± 2.12 nM | 17.7 ± 3.78 nM | 60.3 ± 4.07 nM | 12.4 ± 0.4 nM | 24.3 ± 2.9 nM | 33 ± 5.76 nM | 31.5 ± 5.7 nM | 13800 ± 1900 nM | 13000 ± 2260 nM | 51.1 ± 3.06 µL/min/mg | 0.755 ± 0.0227 h | > 4 h |  |
| CCN(CC)Cc1ccc(-c2ccc(CNc3ccnc4cc(Cl)ccc34)cc2)cc1 [Compound 4, 7-Chloro-N-((4’-((diethylamino)methyl)-[1,1’-biphenyl]-4-yl)methyl)quinolin-4-amine] | 15.2 ± 1.57 nM | 12.9 ± 0.85 nM | 20.7 ± 0.2 nM | 14.4 ± 0.5 nM | 53.4 ± 2.03 nM | 11.8 ± 1 nM | 16.9 ± 1 nM |  | 17.9 ± 1.7 nM | 2800 ± 150 nM | 2600 ± 120 nM | 466 ± 44 µL/min/mg | ~0.0833 h | > 4 h | IC50 ([4]; under conditions A (as printed in text), read-out: IC50 against K14 strain): 7.5 nM |
| CCN(CC)CC1=C(CNc2ccnc3cc(Cl)ccc23)CC=CC1 [Compound 5, 7-Chloro-N-((2-((diethylamino)methyl)cyclohexa-1,4-dien-1-yl)methyl)quinolin-4-amine] |  |  | 59 ± 1.85 nM |  | 63.7 ± 1.46 nM | 20.2 ± 6.55 nM | 25.4 ± 5.31 nM | 18.7 ± 1.16 nM |  |  |  |  |  |  |  |
| CCN(CC)CCCC(C)Nc1ccnc2cc(Cl)ccc12 (centres unmarked) [CQ, chloroquine] |  |  |  |  |  |  |  |  |  |  |  |  |  |  | IC50 ([1]; 3D7, read-out: Antiplasmodial activity, IC50, 3D7, laboratory A (Marseille), 5% CO2, 10% O2, 85% N2): 17.6 ± 0.71 nM; IC50 ([1]; 3D7, read-out: Antiplasmodial activity, IC50, 3D7, laboratory B (Paris), candle jar ~17% O2, 3% CO2, 80% N2): 18 ± 12.3 nM; IC50 (P. falciparum Dd2; DD2, read-out: Antiplasmodial activity, IC50, Dd2, laboratory A (Marseille), 5% CO2, 10% O2, 85% N2, Dd2 CQ-resistant under these conditions): 522 ± 95.7 nM; IC50 (P. falciparum Dd2; DD2, read-out: Antiplasmodial activity, IC50, Dd2, laboratory B (Paris), candle jar ~17% O2, 3% CO2, 80% N2, Dd2 CQ-sensitive under these conditions): 35.1 ± 12.1 nM; IC50 ([2]; K1, read-out: Antiplasmodial activity, IC50, K1, laboratory A (Marseille), 5% CO2, 10% O2, 85% N2): 1090 ± 164 nM; IC50 ([2]; K1, read-out: Antiplasmodial activity, IC50, K1, laboratory B (Paris), candle jar ~17% O2, 3% CO2, 80% N2): 124 ± 48 nM; IC50 ([3]; F32, read-out: Antiplasmodial activity, IC50, F32): 33.9 ± 12.3 nM; IC50 ([4]; read-out: Antiplasmodial activity, IC50, K14): 103 ± 92.5 nM; IC50 ([5]; FCB1, read-out: Antiplasmodial activity, IC50, FcB1): 111 ± 43 nM; NADPH-dep. t1/2 ([8]; human liver microsomes, [Compd] = 1 μM, [protein] = 0.3 mg/mL, with NADPH): 2.22 ± 0.2587 h; microsomal CLint at 1 μM ([8]; microsomes): 17.5 ± 2.03 µL/min/mg; half-life at 1 μM ([8]; microsomes, pH 7.4, NADPH-dep. t1/2, human liver microsomes, [Compd] = 1 μM, [protein] = 0.3 mg/mL, with NADPH): 2.22 ± 0.258 h; half-life at 1 μM ([8]; microsomes, pH 7.4, NADPH-free t1/2, human liver microsomes, [Compd] = 1 μM, [protein] = 0.3 mg/mL, without NADPH): > 4 h |
| CCN(CC)Cc1ccccc1CNc1ccnc2cc(Cl)ccc12 [Compound 1, 7-Chloro-N-(2-((diethylamino)methyl)benzyl)quinolin-4-amine] | 13.5 ± 0.71 nM | 21.6 ± 3.11 nM | 21.3 ± 2.52 nM | 19.4 ± 2.18 nM | 52.7 ± 0.99 nM | 14.6 ± 0.36 nM | 30 ± 15.2 nM | 13.5 ± 4.66 nM | 12.1 ± 1.2 nM | 27700 ± 1730 nM | 26400 ± 1750 nM | 45.6 ± 0.12 µL/min/mg | 0.848 ± 0.00917 h | > 4 h |  |
